# Test results from patent publication US4564619A, “Carbostyril derivative” (Otsuka Pharmaceutical Co., Ltd., priority 1982, dated 1986).
# Columns and labels:
# [1] = test system: coronary artery; experiment: Increased amount of the blood flow in coronary artery, intravenous administration, anesthetized dog; format: in vivo
# Outline: (§1)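 Pentobarbital-anesthetized (30 mg/kg i.v.), heparinized, thoracotomized dogs of either sex, 8-13 kg, under forced breathing; compound given via femoral vein. Coronary sinus outflow measured by electromagnetic flowmeter in an extracorporeal venous circuit to the carotid; blood pressure recorded from femoral artery.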
# [2] = test system: ADP-induced aggregation in rabbit platelets; experiment: Inhibition of ADP-induced platelet aggregation in rabbit platelet rich plasma; format: cell-based; settings: Oryctolagus cuniculus, read-out: Inhibition rate of ADP-induced aggregation; for inhibition at 100 µM (stock): Concentration of the test compound solution 10^-4 mole; for inhibition at 10 µM (stock): Concentration of the test compound solution 10^-5 mole
# Outline: (§2)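 Citrated rabbit PRP adjusted to 600,000 platelets/μl with PPP, preincubated with test compound 1 min at 37° C, then challenged with ADP (solution prepared at 7.5×10^-5 M) or collagen (solution at 200 μg/ml). Aggregation followed by light transmittance; % inhibition relative to control aggregation rate.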
# [3] = Change of blood pressure, intravenous administration, anesthetized dog; format: in vivo; design: unit not given here; settings: femoral artery
# Outline: as §1
# [4] = test system: collagen-induced aggregation in rabbit platelets; experiment: Inhibition of collagen-induced platelet aggregation in rabbit platelet rich plasma; format: cell-based; settings: Oryctolagus cuniculus, read-out: Inhibition rate of collagen-induced aggregation; for inhibition at 100 µM (stock): Concentration of the test compound solution 10^-4 mole; for inhibition at 10 µM (stock): Concentration of the test compound solution 10^-5 mole
# Outline: as §2
SMILES,Increased amount of the blood flow in coronary artery ([1]; 100 micrograms/kg) [mL/min],Increased amount of the blood flow in coronary artery ([1]; 300 micrograms/kg) [mL/min],Increased amount of the blood flow in coronary artery ([1]; 1000 micrograms/kg) [mL/min],inhibition at 100 µM (stock) [2] [%],inhibition at 10 µM (stock) [2] [%],Change of blood pressure ([3]; 10 micrograms/kg),Change of blood pressure ([3]; 30 micrograms/kg),Change of blood pressure ([3]; 100 micrograms/kg),Change of blood pressure ([3]; 300 micrograms/kg),inhibition at 100 µM (stock) [4] [%],inhibition at 10 µM (stock) [4] [%]
"COC(=O)C1=C(C)NC(C)=C(C(=O)OCCN(C(=O)CCCOc2ccc3[nH]c(=O)ccc3c2)C2CCCCC2)C1c1cccc([N+](=O)[O-])c1 (stereo not drawn) [Compound 31, N--{2-[1,4-Dihydro-2,6-dimethyl-5-methoxycarbonyl-4-(3-nitrophenyl)pyridin-3-carboxy]ethyl}-N--cyclohexyl-4-(6-carbostyriloxy)butyramide]",6,32,61,100,84,-1,-4,-8,-23,100,100
"COC(=O)C1=C(C)NC(C)=C(C(=O)OCCN(C(=O)CCCOc2ccc3c(c2)CCC(=O)N3)C2CCCCC2)C1c1ccccc1[N+](=O)[O-] (stereo not drawn) [Compound 32, N--{2-[1,4-Dihydro-2,6-dimethyl-5-methoxycarbonyl-4-(2-nitrophenyl)pyridin-3-carboxy]ethyl}-N--cyclohexyl-4-(3,4-dihydro-6-carbostyriloxy)-butyramide]",16,55,97,98,25,-1,-6,-8,-19,100,34
"COC(=O)C1=C(C)NC(C)=C(C(=O)OCCN(C(=O)CCCOc2ccc3[nH]c(=O)ccc3c2)C2CCCCC2)C1c1ccccc1 (stereo not drawn) [Compound 35, N--[2-(1,4-Dihydro-2,6-dimethyl-5-methoxycarbonyl-4-phenylpyridin-3-carboxy)ethyl]-N--cyclohexyl-4-(6-carbostyriloxy)butyramide]",5,17,47,100,89,-4,-6,-9,-26,100,100
